Test results reported in US7691901B2, “Carotenoid analogs or derivatives for the inhibition and amelioration of inflammation” (Cardax Pharmaceuticals Inc., priority 2004, dated 2010).

System: lipid peroxidation products
Assay: Thioglycollate/Zymosan-induced peritonitis model: lipid oxidation products in peritoneal lavage by electrospray ionization tandem mass spectrometry
Format: in vivo, mice
Settings: for 13-HODE MEAN / 13-HODE MEDIAN / Prostaglandin F2α (PGF2α) MEAN / Prostaglandin F2α (PGF2α) MEDIAN / 9-HETE/AA (ratio) MEAN / 9-HETE/AA (ratio) MEDIAN / 9-HODE MEAN / 9-HODE MEDIAN / 9-HETE MEAN / 9-HETE MEDIAN / Linoleic Acid MEAN / Linoleic Acid MEDIAN / Arachidonic Acid MEAN / Arachidonic Acid MEDIAN / PGF2a/AA (ratio) MEAN / PGF2a/AA (ratio) MEDIAN / 13-HODE/AA (ratio) MEAN / 13-HODE/AA (ratio) MEDIAN / 9-HODE/LA (ratio) MEAN / 9-HODE/LA (ratio) MEDIAN / 11-HETE MEAN / 11-HETE MEDIAN / 5-HETE MEAN / 5-HETE MEDIAN / 11-HETE/AA (ratio) MEAN / 11-HETE/AA (ratio) MEDIAN / 5-HETE/AA (ratio) MEAN / 5-HETE/AA (ratio) MEDIAN: 500 mg/kg oral gavage
Description: Thioglycollate/Zymosan—Induced Peritonitis Model: Wild-type mice were administered either 500 mg/kg body weight of disodium disuccinate astaxanthin (ddAst/Cardax™) in an oil emulsion vehicle, or normal saline (NS) as a negative control, by oral gavage at 24 hours intervals beginning 7 days prior to the induction of peritonitis. Peritonitis was induced experimentally as follows: mice were injected intraperitoneally with 1 ml of 4% by weight thioglycollate (Tg) broth, to induce the recruitment of proinflammatory cells to the peritoneum. Either 16 hours or 72 hours after recruitment, approximately half of the mice were injected intraperitoneally with 250 mg/kg body weight of zymosan (Z) for a further 4 hours. The mice not receiving zymosan underwent no further treatment. Peritoneal lavage was performed in control animals or animals treated with (ddAst) 16 hours post Tg injection, or 20 h following the combination of both Tg injection (16 hours) followed by Z injection (4 hours), as indicated (Tg/Z). Peritoneal lavages were performed with phosphate-buffered saline containing antioxidant (0.1 mM butylated hydroxytoluene (BHT)) and 2 mM of the metal chelator diethylenetriamine pentaacetic acid (DTPA) according to established practices in the art. The lavage suspensions were transferred to screw-capped tubes under an argon atmosphere, and immediately centrifuged at 1000 rpm in a table top microcentrifuge for 10 min at 4° C. to remove whole cells and debris. All analyses of lipid peroxidation products was performed on cell-free lavage supernatants. Cell pellets were resuspended in phosphate-buffered saline containing 0.1 mM BHT and 0.1 mM DTPA, and differential cell counts (macrophages, monocytes, eosinophils, lymphocytes, neutrophils, and erythrocytes) were performed on cytospun preparations of isolated cells according to established procedures in the art.
Electrospray ionization tandem mass spectrometry was used to simultaneously quantify individual molecular species of HETEs, HPETEs, the prostaglandin PGF2α, F2-isoprostanoids, hydroxy- and hydroperoxy-octadecadienoic acids (H(P)ODEs), and their precursors, arachidonic acid (AA) and linoleic acid (LA). Additionally, the molar ratios of o-tyrosine (oY/F). were measured.

[1] = 16 Hour Thioglycollate/4 Hour Zymosan, P-VALUE 0.165
[2] = 16 Hour Thioglycollate/4 Hour Zymosan, P-VALUE 0.250
[3] = 16 Hour Thioglycollate/4 Hour Zymosan, P-VALUE 0.272 NP
[4] = 16 Hour Thioglycollate/4 Hour Zymosan, P-VALUE 0.299
[5] = 16 Hour Thioglycollate/4 Hour Zymosan, P-VALUE 0.354
[6] = 16 Hour Thioglycollate/4 Hour Zymosan, P-VALUE 0.557
[7] = 16 Hour Thioglycollate/4 Hour Zymosan, P-VALUE 0.685 NP
[8] = 16 Hour Thioglycollate/4 Hour Zymosan, P-VALUE 0.772 NP
[9] = 16 Hour Thioglycollate/4 Hour Zymosan, P-VALUE 0.862 NP
[10] = 16 Hour Thioglycollate/4 Hour Zymosan, P-VALUE 0.900
[11] = 16 Hour Thioglycollate/4 Hour Zymosan, P-VALUE 0.954 NP
[12] = 16 Hour Thioglycollate/4 Hour Zymosan, P-VALUE 1.000 NP
[13] = 16 Hour Thioglycollate/4 Hour Zymosan
[14] = 16 Hour Thioglycollate, P-VALUE 0.018
[15] = 16 Hour Thioglycollate, P-VALUE 0.040
[16] = 16 Hour Thioglycollate, P-VALUE 0.096
[17] = 16 Hour Thioglycollate, P-VALUE 0.120
[18] = 16 Hour Thioglycollate, P-VALUE 0.172
[19] = 16 Hour Thioglycollate, P-VALUE 0.227 NP
[20] = 16 Hour Thioglycollate, P-VALUE 0.318 NP
[21] = 16 Hour Thioglycollate, P-VALUE 0.372 NP
[22] = 16 Hour Thioglycollate, P-VALUE 0.564 NP
[23] = 16 Hour Thioglycollate, P-VALUE 0.793 NP
[24] = 16 Hour Thioglycollate, P-VALUE 0.875 NP
[25] = 16 Hour Thioglycollate, P-VALUE 0.958 NP
[26] = 16 Hour Thioglycollate, P-VALUE 0.982
[27] = 16 Hour Thioglycollate, P-VALUE 0.986
[28] = 72 Hour Thioglycollate/4 Hour Zymosan, P-VALUE 0.001 NP
[29] = 72 Hour Thioglycollate/4 Hour Zymosan, P-VALUE 0.002 NP
[30] = 72 Hour Thioglycollate/4 Hour Zymosan, P-VALUE 0.006
[31] = 72 Hour Thioglycollate/4 Hour Zymosan, P-VALUE 0.008
[32] = 72 Hour Thioglycollate/4 Hour Zymosan, P-VALUE 0.010
[33] = 72 Hour Thioglycollate/4 Hour Zymosan, P-VALUE 0.018 NP
[34] = 72 Hour Thioglycollate/4 Hour Zymosan, P-VALUE 0.056 NP
[35] = 72 Hour Thioglycollate/4 Hour Zymosan, P-VALUE 0.118 NP
[36] = 72 Hour Thioglycollate/4 Hour Zymosan, P-VALUE 0.271
[37] = 72 Hour Thioglycollate/4 Hour Zymosan, P-VALUE 0.385 NP
[38] = 72 Hour Thioglycollate/4 Hour Zymosan, P-VALUE 0.629

Structure (SMILES): CC1=C(/C=C/C(C)=C/C=C/C(C)=C/C=C/C=C(C)/C=C/C=C(C)/C=C/C2=C(C)C(=O)C(OC(=O)CCC(=O)O)CC2(C)C)C(C)(C)CC(OC(=O)CCC(=O)O)C1=O (stereo not drawn) [Cardax, disodium disuccinate astaxanthin]
- 13-HODE MEAN [1]: 5.689 pmol
- 13-HODE MEDIAN [1]: 4.768 pmol
- Prostaglandin F2α (PGF2α) MEAN [2]: 0.038 pmol
- Prostaglandin F2α (PGF2α) MEDIAN [2]: 0.035 pmol
- 9-HETE/AA (ratio) MEAN [3]: 0.529
- 9-HETE/AA (ratio) MEDIAN [3]: 0.472
- 9-HODE MEAN [4]: 2.767 pmol
- 9-HODE MEDIAN [4]: 2.825 pmol
- 9-HETE MEAN [5]: 0.559 pmol
- 9-HETE MEDIAN [5]: 0.612 pmol
- Linoleic Acid MEAN [6]: 13158 pmol
- Linoleic Acid MEDIAN [6]: 10509 pmol
- Arachidonic Acid MEAN [7]: 1208.5 pmol
- Arachidonic Acid MEDIAN [7]: 1039.6 pmol
- PGF2a/AA (ratio) MEAN [7]: 0.038
- PGF2a/AA (ratio) MEDIAN [7]: 0.025
- 13-HODE/AA (ratio) MEAN [8]: 0.456
- 13-HODE/AA (ratio) MEDIAN [8]: 0.376
- 9-HODE/LA (ratio) MEAN [9]: 0.245
- 9-HODE/LA (ratio) MEDIAN [9]: 0.201
- 11-HETE MEAN [9]: 0.654 pmol
- 11-HETE MEDIAN [9]: 0.450 pmol
- 5-HETE MEAN [10]: 1.082 pmol
- 5-HETE MEDIAN [10]: 0.953 pmol
- 11-HETE/AA (ratio) MEAN [11]: 0.669
- 11-HETE/AA (ratio) MEDIAN [11]: 0.453
- 5-HETE/AA (ratio) MEAN [12]: 0.997
- 5-HETE/AA (ratio) MEDIAN [12]: 0.770
- 5-oxo-ETE (pmol), MEAN [13]: 0.085 pmol
- 5-oxo-ETE (ratio), MEAN [13]: 0.080 ratio
- 8-iso-F2a (pmol), MEAN [13]: 0.012 pmol
- 8-iso-F2a/AA (ratio), MEAN [13]: 0.011 ratio
- 5-oxo-ETE (pmol), MEDIAN [13]: 0.083 pmol
- 5-oxo-ETE (ratio), MEDIAN [13]: 0.081 ratio
- 8-iso-F2a (pmol), MEDIAN [13]: 0.000 pmol
- 8-iso-F2a/AA (ratio), MEDIAN [13]: 0.000 ratio
- Arachidonic Acid MEAN [14]: 1791.6 pmol
- Arachidonic Acid MEDIAN [14]: 1854.3 pmol
- Linoleic Acid MEAN [15]: 22739 pmol
- Linoleic Acid MEDIAN [15]: 22907 pmol
- 13-HODE/AA (ratio) MEAN [16]: 0.905
- 13-HODE/AA (ratio) MEDIAN [16]: 0.920
- 9-HODE MEAN [17]: 5.367 pmol
- 9-HODE MEDIAN [17]: 3.831 pmol
- Prostaglandin F2α (PGF2α) MEAN [18]: 0.037 pmol
- Prostaglandin F2α (PGF2α) MEDIAN [18]: 0.033 pmol
- 9-HETE/AA (ratio) MEAN [19]: 0.476
- 9-HETE/AA (ratio) MEDIAN [19]: 0.448
- 5-HETE MEAN [20]: 0.334 pmol
- 5-HETE MEDIAN [20]: 0.255 pmol
- 11-HETE MEAN [21]: 0.434 pmol
- 11-HETE MEDIAN [21]: 0.329 pmol
- 9-HODE/LA (ratio) MEAN [22]: 0.292
- 9-HODE/LA (ratio) MEDIAN [22]: 0.255
- 11-HETE/AA (ratio) MEAN [23]: 0.239
- 11-HETE/AA (ratio) MEDIAN [23]: 0.195
- 5-HETE/AA (ratio) MEAN [24]: 0.218
- 5-HETE/AA (ratio) MEDIAN [24]: 0.151
- 9-HETE MEAN [25]: 0.826 pmol
- 9-HETE MEDIAN [25]: 0.718 pmol
- 13-HODE MEAN [26]: 18.838 pmol
- 13-HODE MEDIAN [26]: 15.191 pmol
- PGF2a/AA (ratio) MEAN [27]: 0.034
- PGF2a/AA (ratio) MEDIAN [27]: 0.018
- 5-oxo-ETE (pmol), MEAN (16 Hour Thioglycollate): 0.128 pmol
- 5-oxo-ETE (ratio), MEAN (16 Hour Thioglycollate): 0.056 ratio
- 8-iso-F2a (pmol), MEAN (16 Hour Thioglycollate): 0.052 pmol
- 8-iso-F2a/AA (ratio), MEAN (16 Hour Thioglycollate): 0.044 ratio
- 5-oxo-ETE (pmol), MEDIAN (16 Hour Thioglycollate): 0.078 pmol
- 5-oxo-ETE (ratio), MEDIAN (16 Hour Thioglycollate): 0.067 ratio
- 8-iso-F2a (pmol), MEDIAN (16 Hour Thioglycollate): 0.069 pmol
- 8-iso-F2a/AA (ratio), MEDIAN (16 Hour Thioglycollate): 0.034 ratio
- Arachidonic Acid MEAN [28]: 3554.3 pmol
- Arachidonic Acid MEDIAN [28]: 2429.5 pmol
- 5-HETE/AA (ratio) MEAN [29]: 0.369
- 5-HETE/AA (ratio) MEDIAN [29]: 0.333
- 9-HODE/LA (ratio) MEAN [30]: 0.132
- 9-HODE/LA (ratio) MEDIAN [30]: 0.134
- 11-HETE/AA (ratio) MEAN [31]: 0.253
- 11-HETE/AA (ratio) MEDIAN [31]: 0.237
- PGF2a/AA (ratio) MEAN [32]: 0.011
- PGF2a/AA (ratio) MEDIAN [32]: 0.012
- Linoleic Acid MEAN [33]: 33183 pmol
- Linoleic Acid MEDIAN [33]: 27585 pmol
- 9-HETE/AA (ratio) MEAN [34]: 0.253
- 9-HETE/AA (ratio) MEDIAN [34]: 0.244
- 9-HETE MEAN [35]: 0.917 pmol
- 9-HETE MEDIAN [35]: 0.687 pmol
- 13-HODE/AA (ratio) MEAN [35]: 0.229
- 13-HODE/AA (ratio) MEDIAN [35]: 0.186
- 13-HODE MEAN [36]: 7.181 pmol
- 13-HODE MEDIAN [36]: 6.732 pmol
- 5-HETE MEAN [37]: 1.236 pmol
- 5-HETE MEDIAN [37]: 0.997 pmol
- Prostaglandin F2α (PGF2α) MEAN [38]: 0.040 pmol
- Prostaglandin F2α (PGF2α) MEDIAN [38]: 0.039 pmol
